Test results published in ChEMBL document CHEMBL1141505, “Conformational significance of EH21A1-A4, phenolic derivatives of geldanamycin, for Hsp90 inhibitory activity” (Bioorg Med Chem Lett, 2008).
pEC50: −log10 of the molar value.

How the values were obtained:
KPL4 [1] = test: Inhibition of Hsp90 in human KPL4 cells assessed as depletion of ErbB2 level after 40 hrs; type: cell-based
KPL4 [2] = test: Inhibition of Hsp90 in human KPL4 cells assessed as depletion of Raf-1 level after 40 hrs; type: cell-based
[3] = Growth inhibition of human KPL4 cells; type: functional
[4] = Binding affinity at purified Hsp90 by DELFIA assay
K562 = test: Induction of human K562 cells differentiation; type: functional, cell-based
HCT-116 = test: Growth inhibition of human HCT116 cells; type: functional
DLD-1 = test: Growth inhibition of human DLD1 cells; type: functional
A549 = test: Growth inhibition of human A549 cells; type: functional

Row | SMILES | pEC50 [4] | pEC50 (K562) | GI50 (HCT-116) [nM] | GI50 (DLD-1) [nM] | GI50 (A549) [nM] | MEC (KPL4 [1]) [µM] | MEC (KPL4 [2]) [µM] | GI50 [3] [nM]
1 | C=CCNC1=C2C[C@@H](C)C[C@H](OC)[C@H](O)[C@@H](C)/C=C(\C)[C@H](OC(N)=O)[C@@H](OC)/C=C\C=C(/C)C(=O)NC(=CC1=O)C2=O [TANESPIMYCIN] |  |  |  |  |  | 0.03 | 0.03 | 7
2 | C[C@@H]1C[C@H]2O[C@@H]2/C=C\C=C\C(=O)Cc2c(Cl)c(O)cc(O)c2C(=O)O1 [RADICICOL] | 9.10 |  | 58 | 76 | 110 |  |  | 
3 | COC1=C2C[C@@H](C)C[C@H](OC)[C@H](O)[C@@H](C)/C=C(\C)[C@H](OC(N)=O)[C@@H](OC)/C=C\C=C(/C)C(=O)NC(=CC1=O)C2=O [GELDANAMYCIN] | 7.24 |  | 21 | 37 | 64 | 0.11 | 0.33 | 59
4 | COc1c2cc(cc1OC(C)=O)NC(=O)/C(C)=C/CC[C@H](OC)[C@@H](OC(N)=O)/C(C)=C/[C@H](C)[C@@H](O)[C@@H](OC)C[C@H](C)C2 | 7.68 | 6.64 | 610 | 3520 | 3550 | 0.33 | 0.11 | 180
5 | CO[C@H]1C[C@H](C)Cc2cc(O)cc(c2)NC(=O)/C=C/CC[C@H](OC)[C@@H](OC(N)=O)/C(C)=C/[C@H](C)[C@H]1O | 7.83 | 4.96 | > 10000 | > 10000 | > 10000 | 3.3 | 3.3 | 3390

Further lines, with some results ahead:

Row | pEC50 [4] | pEC50 (K562) | GI50 (HCT-116) [nM] | GI50 (DLD-1) [nM] | GI50 (A549) [nM] | SMILES | MEC (KPL4 [1]) [µM] | MEC (KPL4 [2]) [µM] | GI50 [3] [nM]
6 | 8.66 | 5.72 | 780 | 2350 | 2730 | CO[C@H]1C[C@H](C)Cc2cc(O)cc(c2)NC(=O)/C(C)=C/CC[C@H](OC)[C@@H](OC(N)=O)/C(C)=C/[C@H](C)[C@H]1O | 1 | 1 | 730
7 | 8.64 | 6.12 | 500 | 2080 | 2720 | COc1c(O)cc2cc1C[C@@H](C)C[C@H](OC)[C@H](O)[C@@H](C)/C=C(\C)[C@H](OC(N)=O)[C@@H](OC)CC/C=C(\C)C(=O)N2 [REBLASTATIN] | 0.33 | 0.33 | 450
8 | 8.22 | 4.68 | 8910 | 9400 | 10300 | CO[C@H]1C[C@H](C)Cc2cc(cc(O)c2O)NC(=O)/C(C)=C/CC[C@H](OC)[C@@H](OC(N)=O)/C(C)=C/[C@H](C)[C@H]1O | 10 | 10 | 4330
